Results as given in US20070037862A1, “Thiazolidinones, their production and use as pharmaceutical agents” (priority 2003, published 2007).

These compounds were tested against T1, Recombinant human Plk-1 (6×His) (Homo sapiens, UniProt P53350) (assay: PLK enzyme assay). Conditions: Table 1; read-out: PLK IC50.
T1 construct: 6xHis; made in house; host or cells: baculovirus-infected Hi5 insect cells
Type: biochemical
Method: Recombinant human Plk-1 (6×His) was purified from baculovirus-infected insect cells (Hi5).
10 ng of (produced in a recombinant manner and purified) PLK enzyme is incubated for 90 minutes at room temperature with biotinylated casein and 33P-γ-ATP as a substrate in a volume of 15 μl in 384-well Greiner small-volume microtiter plates (final concentrations in the buffer: 660 ng/ml of PLK; 0.7 μmol of casein, 0.5 μmol of ATP incl. 400 nCi/ml of 33P-γ-ATP; 10 mmol of MgCl2, 1 mmol of MnCl2; 0.01% NP40; 1 mmol of DTT, protease inhibitors; 0.1 mmol of Na2VO3 in 50 mmol of HEPES, pH 7.5). To complete the reaction, 5 μl of stop solution (500 μmol of ATP; 500 mmol of EDTA; 1% Triton X100; 100 mg/ml of streptavidin-coated SPA beads in PBS) is added. After the microtiter plate is sealed by film, the beads are sedimented by centrifuging (10 minutes, 1500 rpm). The incorporation of 33P-γ-ATP in casein is intended as a measurement of enzyme activity by β-counting.
Test substances are used in various concentrations (0 μmol, as well as in the range of 0.01-30 ∥mol). The final concentration of the solvent dimethyl sulfoxide is 1.5% in all batches.

T1 sequence (P53350 whole entry): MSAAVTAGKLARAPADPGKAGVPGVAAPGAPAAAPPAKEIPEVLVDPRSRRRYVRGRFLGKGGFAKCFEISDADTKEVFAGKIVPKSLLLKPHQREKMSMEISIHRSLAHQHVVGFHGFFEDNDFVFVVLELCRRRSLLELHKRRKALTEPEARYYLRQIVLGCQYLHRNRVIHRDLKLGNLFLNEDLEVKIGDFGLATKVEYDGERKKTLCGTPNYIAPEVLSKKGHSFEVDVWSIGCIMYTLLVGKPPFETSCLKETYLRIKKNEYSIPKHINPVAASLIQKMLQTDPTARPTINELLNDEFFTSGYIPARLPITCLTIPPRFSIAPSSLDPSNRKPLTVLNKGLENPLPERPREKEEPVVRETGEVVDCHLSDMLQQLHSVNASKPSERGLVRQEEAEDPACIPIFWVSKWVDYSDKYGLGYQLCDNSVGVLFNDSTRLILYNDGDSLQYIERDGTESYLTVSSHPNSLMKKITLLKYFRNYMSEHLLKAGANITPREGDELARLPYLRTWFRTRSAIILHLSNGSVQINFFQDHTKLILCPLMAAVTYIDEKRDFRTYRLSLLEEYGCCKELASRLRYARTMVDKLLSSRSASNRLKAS

IC50	Compound
500 nM	CCOC(=O)C(C#N)=c1sc(=CNc2ccc(NC(=O)COC)cc2)c(=O)n1CC [Example 19]
160 nM	CCOC(=O)C(C#N)=c1sc(=CNc2ccccc2F)c(=O)n1CC (mixture of isomers) [Example 36]
950 nM	CCCCN(C)C(=O)/C(C#N)=c1\sc(=CNc2ccccc2)c(=O)n1CC [Example 234]
810 nM	CCOC(=O)C(C#N)=c1sc(=CNc2ccc(OC)c(NC(=S)N3CCOCC3)c2)c(=O)n1CC (mixture of isomers) [Example 56]
3100 nM	CCn1c(=O)c(=CNc2ccccc2)s/c1=C(/C#N)C(=O)NCc1ccco1 [Example 223]

Same assay, conditions: Table 2, Amides; read-out: Inhibition of Plk-1 IC50

IC50	Compound
74 nM	CCn1c(=O)c(=CNc2ccc(OCCN(C)C)cc2)s/c1=C(/C#N)C(=O)NCC(F)F [Example 310]
71 nM	C#CCNC(=O)/C(C#N)=c1\sc(=CNc2ccc(OCCN(C)C)cc2)c(=O)n1CC [Example 307]

Same assay, conditions: Table 3, Esters; read-out: Inhibition of Plk-1 IC50

IC50	Compound
23 nM	C=CCOC(=O)C(C#N)=c1sc(=CNc2ccc(NC(=O)NCCN3CCCC3)cc2)c(=O)n1CC (mixture of isomers) [Example 47]

Each compound was assayed on human MaTu breast tumor cells (assay: Proliferation assay (crystal violet)). Conditions: 96 h, Table 2, Amides, 4 days, read-out: Inhibition of Tumor Cell Proliferation (MaTu) IC50.
Type: cell-based
Method: Cultivated human MaTu breast tumor cells were flattened out at a density of 5000 cells/measuring point in a 96-well multititer plate in 200 μl of the corresponding growth medium. After 24 hours, the cells of one plate (zero-point plate) were colored with crystal violet (see below), while the medium of the other plates was replaced by fresh culture medium (200 μl), to which the test substances were added in various concentrations (0 μm, as well as in the range of 0.01-30 μm; the final concentration of the solvent dimethyl sulfoxide was 0.5%). The cells were incubated for 4 days in the presence of test substances. The cell proliferation was determined by coloring the cells with crystal violet: the cells were fixed by adding 20 μl/measuring point of an 11% glutaric aldehyde solution for 15 minutes at room temperature. After three washing cycles of the fixed cells with water, the plates were dried at room temperature. The cells were colored by adding 100 μl/measuring point of a 0.1% crystal violet solution (pH was set at 3 by adding acetic acid). After three washing cycles of the colored cells with water, the plates were dried at room temperature. The dye was dissolved by adding 100 μl/measuring point of a 10% acetic acid solution. The extinction was determined by photometry at a wavelength of 595 nm. The change of cell growth, in percent, was calculated by standardization of the measured values to the extinction values of the zero-point plate (=0%) and the extinction of the untreated (0 μm) cells (=100%).

IC50	Compound
9700 nM	CCn1c(=O)c(=CNc2cccc(NC(=O)C(C)(C)C)c2)s/c1=C(/C#N)C(=O)NC1(CO)CCCC1 [Example 192]
4500 nM	CCn1c(=O)c(=CNc2ccccc2)s/c1=C(/C#N)C(=O)N1CCCC1 [Example 210]
2800 nM	CCn1c(=O)c(=CNc2ccc(CCN3CCCC3)cc2)s/c1=C(/C#N)C(=O)NCC(F)(F)F [Example 527]
3550 nM	CCNC(=O)/C(C#N)=c1\sc(=CNc2cccc(C(=O)NCCCN3CCCC3)c2)c(=O)n1CC [Example 169]
1200 nM	CCN(CC)CCNC(=O)c1c[nH]c2ccc(NC=c3s/c(=C(/C#N)C(=O)NCC(F)(F)F)n(CC)c3=O)cc12 [Example 330]

Same assay, conditions: 96 h, Table 3, Esters, 4 days, read-out: Inhibition of Tumor Cell Proliferation (MaTu) IC50

IC50	Compound
3300 nM	CCOC(=O)C(C#N)=c1sc(=CNc2ccc(NC(=O)NCCN3CCCC3)cc2)c(=O)n1CC [Example 74]
1400 nM	C=CCOC(=O)C(C#N)=c1sc(=CNc2ccc(C(C)=O)cc2)c(=O)n1CC (mixture of isomers) [Example 133]
1100 nM	C=CCOC(=O)C(C#N)=c1sc(=CNc2ccc(NC(=O)NCCN3CCCC3)cc2)c(=O)n1CC (mixture of isomers) [Example 47]
3100 nM	CCOC(=O)C(C#N)=c1sc(=CNc2ccc(C(C)=O)cc2)c(=O)n1CC (mixture of isomers) [Example 132]
